Assay results: patent US4808596A, “Imidazo[4,5-b]pyridine compounds and pharmaceutical compositions containing same” (Tokyo Tanabe Company, Ltd., priority 1986, dated 1989)
Where two headings read alike, the source gives them in different places.

What was measured:
(H^+ +K^+) ATPase = target: T1, (H^+ +K^+) ATPase (Sus scrofa, UniProt P19156); experiment: Inhibitory effect on (H^+ +K^+) ATPase; assay type: biochemical, hog; conditions: at 1 × 10^-3 M; in vitro; read-out: Degree of inhibition, Inhibitory effect on (H^+ + K^+) ATPase
T1 construct: prepared from fresh pieces of the fundus ventriculi of hog stomach; from tissue; host or cells: hog stomach, fundus ventriculi (fresh pieces), prepared by the method of Saccomani et al., J. Biol. Chem. 1976
Experimental: The inhibitory effect of the present compounds [I] on (H^+ +K^+) ATPase was tested by adding each test compound to a solution containing 300-500 μg, on a protein basis, of the enzyme, incubating this reaction mixture at 35°-37° C. for 5-30 minutes, and then determining the residual activity of (H^+ +K^+) ATPase present in the reaction mixture. The test compounds were dissolved in methanol or ethanol in advance and added to the reaction system in such an amount as to give a concentration of 1×10^-3 M. The (H^+ +K^+) ATPase used in this test was prepared from fresh pieces of the fundus ventriculi of hog stomach according to the method of Saccomani et al. (The Journal of Biological Chemistry, Vol. 251, No. 23, p. 7690, 1976). The residual activity of (H^+ +K^+) ATPase was determined by mixing magnesium chloride and potassium chloride with the incubated reaction mixture, adding adenosine triphosphate thereto, incubating this assay mixture 37° C. for 5-15 minutes to effect an enzymic reaction, and colorimetrically determining the liberated inorganic phosphate by use of an ammonium molybdate reagent. The initial concentrations of magnesium chloride, potassium chloride and adenosine triphosphate were adjusted to 2 mM, 20 mM and 2 mM, respectively. Colorimetric determinations were made at a wavelength of 360-400 nm. As a control experiment, the residual activity of (H^+ +K^+) ATPase was determined by repeating the above-described procedure without adding any test compound to the reaction system. In this table, the inhibitory effect is indicated by the degree of inhibition which was obtained by calculating the difference between the measured value obtained in the control experiment and the measured value resulting from the addition of each test compound and expressing this difference as a percentage of the measured value obtained in the control experiment. For purposes of comparison, the inhibitory effect of Omeprazole and Compounds α and β on (H^+ +K^+) ATPase was tested in the same manner as described above and the results thus obtained are also shown in Table 2.

gastric acid secretion = experiment: Inhibitory effect on gastric acid secretion (pylorus ligation); assay type: in vivo, male Wistar rats; conditions: Rattus norvegicus, po, rats; total acidity of gastric juice 4 hours after pylorus ligation
Experimental: The inhibitory effect of the present compounds [I] on gastric acid secretion was tested by using male Wistar rats, weighing about 200 g, in groups of five. To these rats which had been fasted overnight, the test compounds were orally administered in a series of appropriately selected doses ranging from 1 to 100 mg/kg. Then, the pyloric end of the stomach was ligated. After the lapse of 4 hours, the total acidity of gastric juice of each rat was measured. More specifically, the test compounds were suspended in a 0.5% aqueous solution of carboxymethyl cellulose and administered to the rats 30 minutes before ligation. Gastric juice was collected by sacrificing and laparotomizing each rat. The total acidity of gastric juice was determined by titrating the gastric juice with a 0.1 N aqueous solution of sodium hydroxide until a pH of 7.0 was reached. As a control experiment, the total acidity of gastric juice of an untreated group was determined in the same manner as described above. The inhibitory effect of the test compounds on gastric acid secretion was evaluated on the basis of the dose (in mg/kg) required to inhibit gastric acid secretion, i.e. the total acidity of gastric juice, by 50% (hereinafter referred to as ED50). The ED50 value of each test compound was determined by calculating the difference in total acidity between the untreated group and each treated group, dividing the difference by the total acidity of the untreated group to obtain the degree of inhibition, and constructing a dose-response curve on the basis of the data thus obtained. For purposes of comparison, the ED50 values of Omeprazole and Compounds α and β were determined in the same manner as described above and are also shown in Table 3.

physchem = assay type: physicochemical; conditions: solid
Experimental: The storage stability of the present compounds [I] was tested by allowing each test compound to stand under severe conditions (i.e., a temperature of 60° C. and a relative humidity of 75%) for 8 days and then determining its percentage of residue according to a thin-layer densitometric method (Bunseki Kagaku, Vol. 23, No. 9, p. 1016, 1974). More specifically, upon completion of the severe treatment, 100 μg of each test compound was applied to a thin-layer plate and this plate was developed with a chloroform-ethanol mixture (volume ratio 10:1). The thin-layer plate used for this purpose was a TLC Plate Aluminum Oxide 60F254 (manufactured by Merck Co.; 0.25 mm in thickness and 20 cm×20 cm in size), and it was developed over a distance of 15 cm. Then, using a Shimazu Two-wavelength Chromatoscanner CS-910 (manufactured by Shimazu Seisakusho), the resulting spot was analyzed at a wavelength of 300-315 nm.
For purposes of comparison, the percentages of residue of Omeprazole (at a measuring wavelength of 300 nm) and Compounds α and β (at a measuring wavelength of 310 nm) were determined in the same manner as described above and are also shown in Table 1.

[1] = Acute toxicity test (LD50); conditions: rat, in vivo, rats
Experimental: The acute toxicity (LD50) of several typical examples of the present compounds [I] (i.e., the compounds of Examples 1, 8, 13, 19, 24, 26 and 33) was tested with 5-weeks-old male Wistar rats. […] When Omeprazole was administered orally, its LD50 value was greater than 4000 mg/kg.

T1 sequence (P19156 2-1034 limits assumed): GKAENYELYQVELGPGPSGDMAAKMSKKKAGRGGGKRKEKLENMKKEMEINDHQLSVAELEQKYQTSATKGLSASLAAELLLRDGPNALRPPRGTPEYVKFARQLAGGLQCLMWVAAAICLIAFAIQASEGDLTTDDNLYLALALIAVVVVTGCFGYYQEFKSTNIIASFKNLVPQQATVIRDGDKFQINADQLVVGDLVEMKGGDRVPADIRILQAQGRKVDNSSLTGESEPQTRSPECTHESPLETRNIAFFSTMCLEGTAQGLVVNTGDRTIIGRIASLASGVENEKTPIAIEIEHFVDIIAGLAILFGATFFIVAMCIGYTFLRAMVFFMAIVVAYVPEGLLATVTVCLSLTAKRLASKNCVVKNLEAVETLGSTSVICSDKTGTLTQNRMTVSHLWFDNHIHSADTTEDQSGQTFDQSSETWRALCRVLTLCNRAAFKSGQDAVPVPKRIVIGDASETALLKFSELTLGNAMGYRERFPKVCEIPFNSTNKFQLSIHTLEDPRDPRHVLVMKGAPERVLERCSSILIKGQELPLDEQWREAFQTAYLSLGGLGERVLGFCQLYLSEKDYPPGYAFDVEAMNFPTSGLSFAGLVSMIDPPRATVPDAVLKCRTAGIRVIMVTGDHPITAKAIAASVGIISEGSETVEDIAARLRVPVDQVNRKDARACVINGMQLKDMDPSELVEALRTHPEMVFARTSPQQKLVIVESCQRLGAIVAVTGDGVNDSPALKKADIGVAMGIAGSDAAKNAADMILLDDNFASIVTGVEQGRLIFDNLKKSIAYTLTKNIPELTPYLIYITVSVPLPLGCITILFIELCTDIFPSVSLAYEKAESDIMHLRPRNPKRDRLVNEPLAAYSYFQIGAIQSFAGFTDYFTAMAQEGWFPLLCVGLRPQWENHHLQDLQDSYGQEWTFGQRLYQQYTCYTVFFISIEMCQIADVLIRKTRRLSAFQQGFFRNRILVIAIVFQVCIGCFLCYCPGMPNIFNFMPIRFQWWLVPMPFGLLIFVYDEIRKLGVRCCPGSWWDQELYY
T1 sequence (P18434 whole entry partner): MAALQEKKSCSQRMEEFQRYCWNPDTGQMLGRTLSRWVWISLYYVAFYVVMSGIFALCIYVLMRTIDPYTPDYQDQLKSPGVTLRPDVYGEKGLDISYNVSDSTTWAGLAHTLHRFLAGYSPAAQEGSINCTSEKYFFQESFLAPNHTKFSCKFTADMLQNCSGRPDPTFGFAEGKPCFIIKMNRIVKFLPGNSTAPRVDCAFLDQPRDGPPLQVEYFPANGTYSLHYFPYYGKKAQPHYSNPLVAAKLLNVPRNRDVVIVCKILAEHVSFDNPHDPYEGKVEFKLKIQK

SMILES	inhibition at 1000 µM ((H^+ +K^+) ATPase) [%]	ED50 (gastric acid secretion) [mg/kg]	remaining at 192 h (physchem; 75% rh) [%]	LD50 ([1]; ip, intraperitoneal administration) [mg/kg]	LD50 ([1]; oral administration) [mg/kg]	remaining at 192 h (physchem; after treatment at 60° C. and 75% RH for 8 days, read-out: Storage stability, Percentage of residue) [%]
Cc1cnc(C[S+]([O-])c2nc3nc(OC(C)C)ccc3[nH]2)c(C)c1 (centres unmarked) [Example 10, 2-[2-(3,5-Dimethyl)pyridylmethylsulfinyl]-5-isopropyloxyimidazo[4,5-b]pyridine]	90	19	92			
COc1ccnc(C[S+]([O-])c2nc3nc(OC(C)C)ccc3[nH]2)c1 (centres unmarked) [Example 17, 2-[2-(4-Methoxy)pyridylmethylsulfinyl]-5-isopropyloxyimidazo[4,5-b]pyridine]	93.7	17	75			
COc1c(C)cnc(C[S+]([O-])c2nc3ncc(OCCCC4CCCC4)cc3[nH]2)c1C (centres unmarked) [Example 36, 2-[2-(3,5-Dimethyl-4-methoxy)pyridylmethylsulfinyl]-6-(3-cyclopentylpropyloxy)imidazo[4,5-b]pyridine]	93	19	68			
COc1ccnc(C[S+]([O-])c2nc3nc(OCC4CC4)ccc3[nH]2)c1 (centres unmarked) [Example 25, 2-[2-(4-Methoxy)pyridylmethylsulfinyl]-5-cyclopropylmethyloxyimidazo[4,5-b]pyridine]	92.9	18	51			
Cc1cnc(C[S+]([O-])c2nc3nc(OCC(C)C)ccc3[nH]2)c(C)c1 (centres unmarked) [Example 19, 2-[2-(3,5-Dimethyl)pyridylmethylsulfinyl]-5-isobutyloxyimidazo[4,5-b]pyridine]	100	11	78	> 500	> 4000	
Cc1cnc(C[S+]([O-])c2nc3nc(OCC4CC4)ccc3[nH]2)c(C)c1 (centres unmarked) [Example 23, 2-[2-(3,5-Dimethyl)pyridylmethylsulfinyl]-5-cyclopropylmethyloxyimidazo[4,5-b]pyridine]	100	12	95			
COc1c(C)cnc(C[S+]([O-])c2nc3nc(OCC(C)C)ccc3[nH]2)c1C (centres unmarked) [Example 20, 2-[2-(3,5-Dimethyl-4-methoxy)pyridylmethylsulfinyl]-5-isobutyloxyimidazo[4,5-b]pyridine]	100	10	72			
CCOc1ccc2[nH]c([S+]([O-])Cc3ncc(C)cc3C)nc2n1 (centres unmarked) [Example 14, 2-[2-(3,5-Dimethyl)pyridylmethylsulfinyl]-5-ethoxyimidazo[4,5-b]pyridine]	100	15	93			
COc1cc(C[S+]([O-])c2nc3nc(OCC(C)C)ccc3[nH]2)ncc1C (centres unmarked) [Example 21, 2-[2-(4-Methoxy-5-methyl)pyridylmethylsulfinyl]-5-isobutyloxyimidazo[4,5-b]pyridine]	97.4	13	69			
CCCCOc1ccc2[nH]c([S+]([O-])Cc3ncc(C)c(C)c3C)nc2n1 (centres unmarked) [Example 12, 2-[2-(3,4,5-Trimethyl)pyridylmethylsulfinyl]-5-n-butyloxyimidazo[4,5-b]pyridine]	98.5	21	76			
Cc1ccnc(C[S+]([O-])c2nc3nc(OCC(F)(F)C(F)(F)C(F)(F)F)ccc3[nH]2)c1 (centres unmarked) [Example 30, 2-[2-(4-Methyl)pyridylmethylsulfinyl]-5-(2,2,3,3,4,4,4-heptafluorobutyloxy)imidazo[4,5-b]pyridine]	92.1	19				73
COc1c(C)cnc(C[S+]([O-])c2nc3nc(OC(C)C)ccc3[nH]2)c1C (centres unmarked) [Example 15, 2-[2-(3,5-Dimethyl-4-methoxy)pyridylmethylsulfinyl]-5-isopropyloxyimidazo[4,5-b]pyridine]	98.5	13	87			
COc1ccc2[nH]c([S+]([O-])Cc3cc(OC)c(C)cn3)nc2n1 (centres unmarked) [Example 4, 2-[2-(4-Methoxy-5-methyl)pyridylmethylsulfinyl]-5-methoxyimidazo[4,5-b]pyridine]	100	15	98			
COc1cc(C[S+]([O-])c2nc3nc(OC(C)C)ccc3[nH]2)ncc1C (centres unmarked) [Example 16, 2-[2-(4-Methoxy-5-methyl)pyridylmethylsulfinyl]-5-isopropyloxyimidazo[4,5-b]pyridine]	96.1	16	90			
Cc1cnc(C[S+]([O-])c2nc3nc(OCCC(C)C)ccc3[nH]2)c(C)c1 (centres unmarked) [Example 34, 2-[2-(3,5-Dimethyl)pyridylmethylsulfinyl]-5-(3-methylbutyloxy)imidazo[4,5-b]pyridine]	98.5	14	76			
CCCOc1ccc2[nH]c([S+]([O-])Cc3ncc(C)cc3C)nc2n1 (centres unmarked) [Example 18, 2-[2-(3,5-Dimethyl)pyridylmethylsulfinyl]-5-n-propyloxyimidazo[4,5-b]pyridine]	92.3	19	85			
COc1cc(C[S+]([O-])c2nc3nccc(OC)c3[nH]2)ncc1C (centres unmarked) [Example 7, 2-[2-(4-Methoxy-5-methyl)pyridylmethylsulfinyl]-7-methoxyimidazo[4,5-b]pyridine]	98.8	22	53			
COc1ccc2[nH]c([S+]([O-])Cc3ncc(C)c(C)c3C)nc2n1 (centres unmarked) [Example 3, 2-[2-(3,4,5-Trimethyl)pyridylmethylsulfinyl]-5-methoxyimidazo[4,5-b]pyridine]	100	9	99			
COc1ccnc(C[S+]([O-])c2nc3nc(OCC(C)C)ccc3[nH]2)c1 (centres unmarked) [Example 22, 2-[2-(4-Methoxy)pyridylmethylsulfinyl]-5-isobutyloxyimidazo[4,5-b]pyridine]	94.6	15	57			
COc1ccc2[nH]c([S+]([O-])Cc3ncc(C)c(OC)c3C)nc2n1 (centres unmarked) [Example 2, 2-[2-(3,5-Dimethyl-4-methoxy)pyridylmethylsulfinyl]-5-methoxyimidazo[4,5-b]pyridine]	96.6	18	77			
